From publication PMC3933693, “Novel Inhibitors of Mitochondrial sn-Glycerol 3-phosphate Dehydrogenase” (PLoS ONE, 2014)
Like-named read-outs stand apart in the source and are kept apart here.

Key:
mGPDH = biological target: T1, mGPDH (Rattus norvegicus, UniProt P35571); assay: Superoxide/H2O2 production by mGPDH in isolated skeletal muscle mitochondria (Amplex UltraRed); format: biochemical
T1 construct: Activity of mGPDH in frozen-thawed skeletal muscle mitochondria was measured; from tissue; host or cells: skeletal muscle mitochondria
T1 sequence (P35571 43-727): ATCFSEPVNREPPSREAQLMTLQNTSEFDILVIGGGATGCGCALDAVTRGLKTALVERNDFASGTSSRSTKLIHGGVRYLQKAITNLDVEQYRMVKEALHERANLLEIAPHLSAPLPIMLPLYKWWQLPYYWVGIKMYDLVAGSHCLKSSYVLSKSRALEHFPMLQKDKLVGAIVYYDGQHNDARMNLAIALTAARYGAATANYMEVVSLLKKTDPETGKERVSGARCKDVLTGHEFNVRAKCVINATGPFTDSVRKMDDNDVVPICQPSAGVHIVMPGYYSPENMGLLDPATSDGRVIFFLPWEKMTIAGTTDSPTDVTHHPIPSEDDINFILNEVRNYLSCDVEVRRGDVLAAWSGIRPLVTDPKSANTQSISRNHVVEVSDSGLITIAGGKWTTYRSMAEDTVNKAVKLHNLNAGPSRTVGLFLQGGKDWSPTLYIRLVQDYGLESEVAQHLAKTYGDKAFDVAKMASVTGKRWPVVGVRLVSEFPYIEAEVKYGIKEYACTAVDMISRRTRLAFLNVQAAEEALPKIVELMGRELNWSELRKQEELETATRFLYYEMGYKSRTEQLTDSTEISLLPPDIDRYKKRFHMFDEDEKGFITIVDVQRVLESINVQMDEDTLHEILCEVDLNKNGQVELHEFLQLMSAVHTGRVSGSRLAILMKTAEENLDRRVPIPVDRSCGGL

[1] = test system: flavin mononucleotide site of complex I (site IF) plus matrix NAD-linked dehydrogenases (site IF/DH); assay: Site-specific H2O2 production from site IF/DH in skeletal muscle mitochondria; format: biochemical, rat; settings: primary screen, ∼2.5 µM, average of duplicates
How it was run: (§1)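 Isolated rat skeletal muscle mitochondria; H2O2 read by Amplex UltraRed with added SOD and HRP. Site IF/DH: 5 mM glutamate, 5 mM malate, 4 µM rotenone. Site IIF: palmitoylcarnitine or succinate with rotenone/antimycin A/myxothiazol. Site IIIQo: succinate, rotenone, antimycin A. Screen at 2.5 µM, normalised as % change from DMSO.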

[2] = biological target: T2, flavin site of complex II (site IIF) (Rattus norvegicus, UniProt Q920L2); assay: Site-specific H2O2 production from site IIF in skeletal muscle mitochondria; format: biochemical; settings: primary screen, ∼2.5 µM, average of duplicates; palmitoylcarnitine
T2 construct: from tissue; host or cells: skeletal muscle mitochondria
How it was run: as §1

[3] = biological target: T3, outer ubiquinone-binding site of complex III (site IIIQo) (Rattus norvegicus, UniProt P00159+P20788); assay: Site-specific H2O2 production from site IIIQo in skeletal muscle mitochondria; format: biochemical; settings: primary screen, ∼2.5 µM, average of duplicates; 5 mM succinate
T3 construct: from tissue; host or cells: skeletal muscle mitochondria
How it was run: as §1

[4] = test system: skeletal muscle mitochondria; assay: Mitochondrial membrane potential (ΔΨm, TMRM) powered by glutamate plus malate; format: biochemical, rat
cortical synaptosomes = assay: Synaptosomal respiration (Seahorse XF24); format: cell-based, mouse; settings: 100 µM iGP-1, 0.5 mM aminooxyacetate
Method: Synaptosomal respiration was tested in the Seahorse XF24 using published protocols, [41]. Synaptosomes (20 or 25 µg protein) were attached to polyethyleneimine and Geltrex-coated Seahorse plates by centrifugation in ionic medium, [41] containing 10 mM glucose. Attachment buffer was carefully replaced with ionic buffer containing DMSO, 100 µM iGP-1, 0.5 mM aminooxyacetate, or iGP-1 with aminooxyacetate, and either 10 mM pyruvate or 15 mM glucose. Plates were equilibrated for 20 min at 37°C then loaded into the instrument followed by measurement of basal respiration and injection of 5 µM FCCP (to induce maximal, uncoupled respiration) with 4 µg ⋅ mL^−1 oligomycin (to prevent compensatory reversal of ATP synthase). In some experiments, 10 mM oxamate was added with the FCCP/oligomycin to minimize regeneration of cytosolic NAD^+ by lactate dehydrogenase. Inhibition of the malate-aspartate shuttle was defined as the difference between maximal rates ± aminooxyacetate, expressed as % of control. Inhibition of the glycerol phosphate shuttle was the difference between maximal rates with aminooxyacetate ± iGP-1, as % of control.

T2 sequence (Q920L2 35-656): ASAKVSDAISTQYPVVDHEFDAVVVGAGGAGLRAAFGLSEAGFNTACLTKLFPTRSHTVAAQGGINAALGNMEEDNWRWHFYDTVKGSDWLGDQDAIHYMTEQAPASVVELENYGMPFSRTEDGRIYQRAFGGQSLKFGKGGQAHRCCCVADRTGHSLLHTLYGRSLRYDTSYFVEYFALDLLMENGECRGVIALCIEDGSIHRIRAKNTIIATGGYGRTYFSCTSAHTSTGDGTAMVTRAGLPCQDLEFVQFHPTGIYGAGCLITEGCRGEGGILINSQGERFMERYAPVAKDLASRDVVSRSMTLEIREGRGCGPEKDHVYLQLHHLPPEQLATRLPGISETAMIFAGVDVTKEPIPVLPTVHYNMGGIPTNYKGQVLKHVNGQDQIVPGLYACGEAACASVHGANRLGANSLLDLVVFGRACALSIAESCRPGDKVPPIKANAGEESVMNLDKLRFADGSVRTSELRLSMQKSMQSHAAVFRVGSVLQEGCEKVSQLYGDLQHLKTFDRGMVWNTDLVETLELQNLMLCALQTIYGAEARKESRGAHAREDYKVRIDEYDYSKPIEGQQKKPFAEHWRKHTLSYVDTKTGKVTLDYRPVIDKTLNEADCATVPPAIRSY
T2 sequence (P21913 31-282 partner): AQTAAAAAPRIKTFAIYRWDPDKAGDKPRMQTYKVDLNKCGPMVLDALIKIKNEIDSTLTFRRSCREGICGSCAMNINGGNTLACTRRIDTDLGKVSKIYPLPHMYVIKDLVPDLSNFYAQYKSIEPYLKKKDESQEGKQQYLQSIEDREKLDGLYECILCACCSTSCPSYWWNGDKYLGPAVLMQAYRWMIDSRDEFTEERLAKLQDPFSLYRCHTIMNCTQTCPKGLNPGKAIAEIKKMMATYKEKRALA
T2 sequence (Q641Z9 30-169 partner limits assumed): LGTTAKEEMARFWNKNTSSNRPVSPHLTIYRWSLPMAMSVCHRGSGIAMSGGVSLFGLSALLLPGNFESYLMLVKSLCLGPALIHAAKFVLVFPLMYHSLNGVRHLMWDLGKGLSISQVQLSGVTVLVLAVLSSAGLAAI
T2 sequence (Q6PCT8 57-159 partner): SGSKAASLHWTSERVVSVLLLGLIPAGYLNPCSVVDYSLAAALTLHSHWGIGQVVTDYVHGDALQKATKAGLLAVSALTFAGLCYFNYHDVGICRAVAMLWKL

IC50 (mGPDH; Fig. 4 structure/activity microplate assay, 0.08–80 µM, estimated, means of two replicates, read-out: mGPDH H2O2 production IC50): 8 µM
IC50 (mGPDH; Fig. 9B, read-out: mGPDH H2O2 Production IC50): 13.6 ± 1.3 µM
mGPDH (% change from DMSO) (mGPDH; primary screen, ∼2.5 µM, average of duplicates, 16.7 mM glycerol phosphate, no added calcium): -21.6%
inhibition at 80 µM (mGPDH; read-out: mGPDH H2O2 production (% change at 80 μM)): 55%
IC50 (mGPDH; titration up to 80 µM (Fig. 6B, Fig. 7B), read-out: half-maximal effect on H2O2 production by mGPDH): ~8 µM
IIF (% change from DMSO) [2]: 3.6%
IIIQo (% change from DMSO) [3]: -0.246%
SMILES: O=C(O)CCC(=O)Nc1ccc(-c2nc3ccccc3[nH]2)cc1 [iGP-1]
IF/DH (% change from DMSO) [1]: 4.1%
ΔΨm with Glu + Mal + Nig (% change at 80 μM) ([4]; 80 μM, 5 mM glutamate, 5 mM malate, with nigericin): 4%
ΔΨm with Glu + Mal (% change at 80 μM) ([4]; 80 μM, 5 mM glutamate, 5 mM malate, without nigericin): 15%
ΔΨm (% change from DMSO) ([4]; primary screen, ∼2.5 µM, average of duplicates, glutamate and malate): 0.154%
effect on ΔΨm powered by glutamate and malate ([4]; without or with nigericin): no effect
effect on basal or maximal respiration with pyruvate (cortical synaptosomes; 10 mM pyruvate): no effect
effect on basal and maximal respiration with glucose (cortical synaptosomes; 15 mM glucose, no oxamate): no effect
